What was measured:
[1] = tested on: monocyte-derived dendritic cells; experiment: FACS analysis of activation status of monocyte derived DCs; format: cell-based, human; settings: 24 h conditioning; immature and Salmonella treated (mature) DCs
Experimental: (§1) Peripheral CD14^+ monocytes were isolated from PBMC using human CD14^+ microbeads (Miltenyi Biotec) according to the manufacturer's instructions. Cells were then cultivated in complete RPMI 1640 medium in the presence of IL4 (2.5 ng/ml) and GM-CSF (5 ng/ml) (BD Biosciences) for 6 days to obtain monocyte-derived dendritic cells. The percentage and the phenotype of cell subsets were evaluated before and after differentiation by flow cytometry. Dendritic cells were seeded in complete RPMI 1640 medium at 1×10^6/ml in 48-well plates in the presence of short TSLP at different concentrations or culture medium alone. After 24 hours of culture dendritic cells were gently washed and challenged with Salmonella typhimurium FB62 (MOI 1:1) for 1 hour. Bacteria were then washed out and the medium replaced with medium containing 100 μg/ml gentamycin. Cytokine secretion was assessed after 24 hours by cytometric bead assay Flex sets (BD Biosciences). CBA were acquired on a BD Accuri C6 (BD Biosciences) and analyzed with FCAP software (BD Biosciences).
Cells were stained with monoclonal anti-human fluorescently conjugated antibodies: CD14 (M5E2), CD19 (HIB19), CD11c (B-ly6), CD45RA (HI100), CD3 (UCHT1), TNF (Mab11), IFNg (4S.B3), TNF (Mab11) from BD Biosciences; CD4 (RPA-T4) from Ebioscience; CD1a (HI149) and TSLPR (1B4) from Biolegend.

[2] = tested on: C57Bl/6J mice; experiment: LPS-induced endotoxic shock, serum cytokines; format: in vivo, mouse; settings: for level of inflammatory cytokines in the serum: endotoxin shock model, short TSLP fragments
Experimental: (§2) Mice were treated intraperitoneally (i.p.) with short TSLP at 50, 100, 200 μg per mouse in 200 μl of injectable water twice, 12 hours and 2 hours, before LPS administration (n=8 per group). Control mice received water. LPS (E. coli serotype 026:B6; Sigma-Aldrich) was injected intraperitoneally (i.p.) at 200 μg per mouse in 200 μl of injectable water. After 6 hours mice were euthanized by exsanguination under anesthesia and blood was collected. IFNgamma, IL6 and IL12-p40 levels were detected in the serum by ELISA (R&D Systems), according to manufacturer's instructions.

[3] = tested on: tslpr-/- mice; experiment: LPS-induced endotoxic shock in TSLPR knock-out mice; format: in vivo, mouse; settings: 200 μg i.p.
Experimental: Female C57Bl/6J mice (8 to 10 weeks of age) were obtained from Charles River Laboratories (Milan, Italy). TSLPR-deficient mice on the C57Bl/6J background were provided by Dr W. J. Leonard (Laboratory of Molecular Immunology, NHLBI, USA). Mice were bred and maintained at IFOM-IEO campus animal facility under specific pathogen-free conditions. All experiments were performed in accordance with the guidelines established in the Principle of Laboratory Animal Care (directive 86/609/EEC).
as §2

[4] = tested on: intestinal mucosa from ulcerative colitis patients; experiment: ex-vivo organ culture of intestinal mucosa from ulcerative colitis patients; set-up: species or system human; settings: 100 and 1000 ng/ml
Experimental: The activity of short TSLP on IBD tissues was assessed directly on human intestinal mucosa. Briefly, IBD mucosa was separated from the submucosa and mounted as described (Tsilingiri K., et al. J Vis Exp. 2013).

[5] = tested on: mice with DSS-induced colitis; experiment: DSS-induced colitis; format: in vivo, mouse; settings: 3% DSS, 200 μg i.p. every other day
Experimental: Colitis was induced by adding 3% (w/v) DSS (TdB Consultancy AB, Uppsala, Sweden) to drinking water for 9 days. Mice were treated i.p. with short TSLP (200 μg in 200 μl of injectable water) the day before DSS administration and every other day during the entire study. Mice were monitored daily for weight loss.

[6] = tested on: peripheral blood mononuclear cells (PBMC); experiment: bidirectional allogenic mixed lymphocyte reaction (MLR), IFNgamma by ELISA; format: cell-based, human; settings: PBMC from two donors 1:1, increasing doses, 5 days
Source text: Buffy coats were obtained from healthy donors (Abbiategrasso hospital, Italy) with informed consent for research use. Peripheral blood mononuclear cells (PBMC) were separated with Ficoll (GE Healthcare) gradient centrifugation and then resuspended and cultured in RPMI 1640 medium (Lonza) containing 10% fetal bovine serum (Gibco), 1% Glutamine 1% pyruvate, 1% non essential AA and 1% Penicillin-Streptomycin. PBMC from two different donors were co-cultured (1:1) in presence of long and short TSLP at different concentrations. After 5 days supernatants were collected and IFNgamma levels were measured by ELISA (R&D systems).

[7] = tested on: monocyte-derived dendritic cells; experiment: monocyte-derived DCs conditioned 24 h, then Salmonella challenge; cytokine secretion by cytometric bead assay; format: cell-based, human; settings: 24 h conditioning, then LPS or bacterial stimulation
Experimental: as §1

[8] = tested on: naive CD4 T cells cocultured with mDC; experiment: conditioned myeloid DCs cocultured with naive CD4 T cells; format: cell-based, human
Experimental: (§3) Myeloid BDCA1+ cells were isolated from PBMC using CD1c (BDCA-1)+ Dendritic Cell Isolation Kit (Miltenyi Biotec) according to the manufacturer's instructions. […] Cells were then washed and cocultured with naïve CD4 T cells from a different donor (ratio 1 DC: 5 T). CD4 cells were isolated using naive CD4+ T Cell Isolation Kit II (Miltenyi Biotec) according to the manufacturer's instructions. After 6 days supernatants were collected and cells were restimulated for 4 hours with PMA (phorbol 12-myristate 13-acetate, 50 ng/ml) and ionomycin (1 ug/ml); for the last 3 hours brefeldin A (10 ug/ml) was added to the culture. Intracellular staining for TNF and IFNgamma positive cells was performed afterwards. CCL17, CCL22 and IFNgamma levels were assessed in the supernatant of DC or of the DC-T culture by ELISA (R&D Systems).

[9] = tested on: HaCaT cells; experiment: qPCR of TSLP isoform mRNA in challenged HaCaT keratinocytes; format: cell-based, human; settings: 24 hours challenge
Experimental: RNA was extracted using the RNeasy Micro Kit (Qiagen). RNA was reverse transcribed with oligo(dT) and ImProm-II™ Reverse Transcriptase (Promega). Quantitative real-time PCRs were performed with Fast SYBR Green PCR kit on the Applied Biosystems 7900HT Fast RT-PCR System (Applied Biosystems). Results were quantified using the 2-DCt method (Livak and Schmittgen, Methods, 2001). Gene expression was normalized to the expression of the housekeeping gene, gapdh.
Caco2 cells were cultured in DMEM supplemented with 10% FBS, 1% Glutamine, 1% non-essential aminoacids, 1% Penicillin-Streptomycin. HaCaT cells were cultured in DMEM supplemented with 10% FBS, 1% Glutamine, 1% Penicillin-Streptomycin. For growth on transwell inserts (Corning), 2×10^5 caco2 cells were seeded on 6 mm^2 transwells and grown for 10-12 days, until transepithelial resistance was roughly […]. Cells were infected with bacteria in the absence of antibiotics at a multiplicity of infection of 1:100 for one hour. Then medium was replaced with complete medium containing 100 μg/mL Gentamicin and the cells were cultured for a further 23 hours. HaCaT cells were challenged with calcitriol, an active form of vitamin D, (10 μM, Enzo Life Sciences), or poly(I:C) (1 μg/mL) for 24 hours. At the end of the challenge cells were lysed in Trizol (Ambion, Life Technologies) reagent for RNA extraction or RIPA buffer for protein extraction.

[10] = tested on: myeloid dendritic cells (mDC); experiment: flow cytometry of STAT5 pY694 in myeloid dendritic cells; format: cell-based, human; settings: 15 minutes, 3.5 nM, in the absence and in the presence of the short isoform
Experimental: Control conditions included cells either left unstimulated (negative control) or incubated with sodium pervanadate ([…], positive control, data not shown). At the end of incubation cells were rapidly spun, fixed with BD Cytofix™ Buffer for 15 minutes at 37° C. and permeabilized with BD™ Phosflow Perm Buffer III on ice for 30 minutes, followed by intracellular staining using mouse anti-pSTAT5 (pY694) antibody (45/Stat5, BD Biosciences) or isotype antibody (MOPC-21). Samples were acquired on a BD Cantoll flow cytometer (BD Biosciences) and analyzed with FlowJo software (v8.7, Tree Star).

[11] = tested on: myeloid dendritic cells (mDC); experiment: CCL17 and CCL22 ELISA in supernatants of myeloid DCs; format: cell-based, human; settings: 24 hours, in the absence and in the presence of the short isoform
Experimental: as §3

[12] = i.p. 12 hours and 2 hours before LPS, 6 hours after LPS, dose-dependent

short TSLP: short TSLP peptide, aa 4-63 of SEQ ID NO: 1, mw 7 KDa, synthesized in house
expression of maturation markers CD80, CD86 or HLA-DR [1]: no change | IFN-γ in the sera [2, 12]: significant decrease | IL-6 in the sera [2, 12]: significant decrease | IL-12p40 in the sera [2, 12]: significant decrease | anti-inflammatory effect (serum cytokines) in TSLPR knock-out mice [3]: also manifested | ongoing inflammation in the tissue [4]: ameliorated the ongoing inflammation in the tissue | production of mucous by goblet cells [4]: restored the production of mucous by goblet cells | tissue architecture [4]: normalized tissue architecture | body weight loss [5]: significantly limiting weight loss | inhibition of the release of IFN-gamma [6]: 50% | capacity to release IL12-p70 [7]: strongly affected | capacity to release IL-1beta [7]: strongly affected | capacity to release IL-6 [7]: strongly affected | capacity to release IL-10 [7]: strongly affected | capacity to release TNF-alfa [7]: strongly affected | percentage of Th1 cells ([8]; conditioned DCs 24 h, 6 days coculture, IFNgamma intracellular staining): reducing the percentage of Th1 cells | IFN-gamma secretion in DC-T coculture ([8]; conditioned DCs 24 h, supernatant day 6): reducing | counter effect to long TSLP on myeloid DCs ([8]; equimolar ratio with long TSLP): does not mediate a counter effect to the long isoform

polyI:C
long TSLP mRNA [9]: upregulated the long isoform

long TSLP: recombinant human TSLP long isoform, aa. 29-159 of SEQ ID NO: 2, from R&D Systems, or produced in house in baculovirus
ongoing inflammation in the tissue [4]: only short TSLP ameliorated the ongoing inflammation | STATS phosphorylation [10]: significantly increased | IFN-gamma release in MLR [6]: increasing the amount of IFN-gamma released | secretion of CCL17 [11]: significantly increased | secretion of CCL22 [11]: significantly increased

C terminal peptide: C terminal fragment of short TSLP, aa 24-63 of SEQ ID NO: 1, mw 4.8 KDa (ATQAMKKRRKRKVTTNKCLEQVSQLQGLWRRFNRPLLKQQ; listed as Homo sapiens)
level of inflammatory cytokines in the serum [2]: able to reduce the level of inflammatory cytokines in the serum | IFN-gamma release in MLR [6]: inhibiting IFNgamma secretion

N terminal: N terminal fragment of short TSLP, aa 4-40 of SEQ ID NO: 1, mw 4.2 KDa (MKTKAALAIWCPGYSETQINATQAMKKRRKRKVTTNK; listed as Homo sapiens)
level of inflammatory cytokines in the serum [2]: did not exert any effects | IFN-gamma release in MLR [6]: inhibiting IFNgamma secretion

C=C1/C(=C\C=C2/CCC[C@]3(C)[C@@H]([C@H](C)CCCC(C)(C)O)CC[C@@H]23)C[C@@H](O)C[C@@H]1O [vitamin D, calcitriol]
short TSLP mRNA [9]: significantly upregulated mRNA for short TSLP

Reference: patent publication US20160052985A1, “THYMIC STROMAL LYMPHOPOIETIN FRAGMENTS AND USES THEREOF” (IEO - ISTITUTO EUROPEO DI ONCOLOGIA SRL, priority 2013, published 2016)
